Test results: patent publication US20120270905A1, “FLUORINATED 2,6-DIALKYL-3,5-DICYANO-4-(1H-INDAZOL-5-YL)-1,4-DIHYDROPYRIDINES AND METHODS OF USE THEREOF” (BAYER PHARMA AKTIENGESELLSCHAFT, priority 2009, published 2012)

Legend:
[1] = molecular target: T1, Recombinant human c-Met protein (Homo sapiens, UniProt P08581); test: c-Met receptor tyrosine kinase activity assay (NADH read-out); assay type: biochemical; details: c-Met 30 nM, ATP 30 μM, 100 min at 32° C.
T1 construct: purchased Invitrogen
Procedure: c-Met Receptor Tyrosine Kinase Activity Assay (NADH Read-Out):
Recombinant human c-Met protein (Invitrogen, Carlsbad, Calif., USA) is used. As substrate for the kinase reaction the peptide KKKSPGEYVNIEFG (JPT, Germany) is used. For the assay, 1 μL of a 51-fold concentrated solution of the test compound in DMSO is pipetted into a white 384-well microtiter plate (Greiner Bio-One, Frickenhausen, Germany). 25 μL of a solution of c-Met (final concentration 30 nM) and pyruvate kinase/lactate dehydrogenase (Roche Diagnostics, Mannheim, Germany; final concentration 8 mg/L) in assay buffer [3-(N-morpholino)propanesulfonic acid (MOPS), 50 mM, pH 7; MgCl2, 10 mM; bovine serum albumin (BSA), 0.01%; Triton X 100, 0.01%; DTT, 2 mM] are added, and the mixture is incubated for 5 min at room temperature. Then, the kinase reaction is started by the addition of 25 μL of a solution of adenosine triphosphate (ATP, final concentration 30 μM), substrate (final concentration 100 μM), nicotinamide adenine dinucleotide (NADH, final concentration 50 μM) and dithiothreitol (DTT, final concentration 2 mM) in assay buffer, and the resulting mixture is incubated for a reaction time of 100 min at 32° C.
Subsequently, the amount of phosphorylated substrate is evaluated by measurement of the decrease of NADH fluorescence. Therefore, the fluorescence emissions at 465 nm after excitation at 340 nm is measured in a fluorescence reader, e.g. Tecan Ultra (Tecan, Männedorf, Switzerland). The data are normalised (enzyme reaction without inhibitor=0% inhibition; all other assay components but no enzyme=100% inhibition).
Some representative IC50 values are listed in Table 1 below together with corresponding data for a structurally related, non-fluorinated compound from prior art (cf. WO 2008/071451): […]

[2] = Caco-2 permeability assay; assay type: in vitro ADME; details: human, apical to basolateral, test concentration 2 μM, 2 h at 37° C., read-out: Caco-2 permeability PappA-B
Description: Caco-2 Permeability Assay:
The in vitro permeation of a test compound across a Caco-2 cell monolayer is a well-established assay system to predict the permeability from the gastro-intestinal tract [cf. P. Artursson and J. Karlsson: Correlation between oral drug absorption in humans and apparent drug permeability coefficients in human intestinal epithelial (Caco-2) cells, Biochem. Biophys. 175 (3), 880-885 (1991)]. The permeability of the compounds of the present invention in such Caco-2 cells was deter-mined as described below:
Human Caco-2 cells (ACC No. 169, DSMZ, German Collection of Microorganisms and Cell Cultures, Braunschweig, Germany) are seeded on 24-well insert plates and are allowed to grow for 14-16 days. For permeability studies, the test compounds are dissolved in DMSO and diluted to the final test concentration of 2 μM with transport buffer [Hanks' Buffered Salt Solution, Gibco/Invitrogen, further supplemented with glucose (final concentration 19.9 mM) and HEPES (final concentration 9.8 mM)]. For determination of the apical to basolateral permeability (PappA-B), the test compound solution is added to the apical side of the cell monolayer and transport buffer to the basolateral side of the monolayer; for determination of the basolateral to apical permeability (PappB-A), the test compound solution is added to the basolateral side of the cell monolayer and transport buffer to the apical side of the monolayer. Samples are taken from the donor compartment at the beginning of the experiment to confirm mass balance. After an incubation of 2 h at 37° C., samples are taken from both compartments. Samples are analyzed by LC-MS/MS, and the apparent permeability coefficients are calculated. Lucifer Yellow permeability is assayed for each cell monolayer to ensure cell monolayer integrity, and the permeability of Atenolol (low permeability marker) and Sulfasalazine (marker for active excretion) is determined for each batch as quality control. […]

[3] = molecular target: T2, recombinant kinase domain of the human c-Met (amino acids 960-1390) (Homo sapiens, UniProt P08581); test: c-Met receptor tyrosine kinase homogeneous time-resolved fluorescence assay (alternative format); assay type: biochemical; details: HTRF format; ATP 10 μM, 30 min at 22° C.
T2 construct: kinase domain of the human c-Met (amino acids 960-1390); His6 (N); made in house; host or cells: insect cells (SF21)
Description: c-Met Receptor Tyrosine Kinase Homogeneous Time-Resolved Fluorescence Assay (Alternative Format):
The N-terminally His6-tagged recombinant kinase domain of the human c-Met (amino acids 960-1390), expressed in insect cells (SF21) and purified by Ni-NTA affinity chromatography and consecutive size exclusion chromatography (Superdex 200), is used. Alternatively, commercially available c-Met (Millipore) can be used. As substrate for the kinase reaction, the biotinylated poly-Glu,Tyr (4:1) copolymer (#61GT0BLC, Cis Biointernational, Marcoule, France) is used.
For the assay, 50 nL of a 100-fold concentrated solution of the test compound in DMSO is pipetted into a black low-volume 384-well microtiter plate (Greiner Bio-One, Frickenhausen, Germany). […]
The resulting mixture is incubated for 1 h at 22° C. to allow the binding of the biotinylated phosphorylated peptide to the streptavidine-XLent and the PT66-Eu-chelate. Subsequently, the amount of phosphorylated substrate is evaluated by measurement of the resonance energy transfer from the PT66-Eu-chelate to the streptavidine-XLent. Therefore, the fluorescence emissions at 620 nm and 665 nm after excitation at 350 nm are measured in an HTRF reader, e.g. Rubystar (BMG Lab-technologies, Offenburg, Germany) or Viewlux (Perkin-Elmer). […]

T1 sequence (P08581 25-1390): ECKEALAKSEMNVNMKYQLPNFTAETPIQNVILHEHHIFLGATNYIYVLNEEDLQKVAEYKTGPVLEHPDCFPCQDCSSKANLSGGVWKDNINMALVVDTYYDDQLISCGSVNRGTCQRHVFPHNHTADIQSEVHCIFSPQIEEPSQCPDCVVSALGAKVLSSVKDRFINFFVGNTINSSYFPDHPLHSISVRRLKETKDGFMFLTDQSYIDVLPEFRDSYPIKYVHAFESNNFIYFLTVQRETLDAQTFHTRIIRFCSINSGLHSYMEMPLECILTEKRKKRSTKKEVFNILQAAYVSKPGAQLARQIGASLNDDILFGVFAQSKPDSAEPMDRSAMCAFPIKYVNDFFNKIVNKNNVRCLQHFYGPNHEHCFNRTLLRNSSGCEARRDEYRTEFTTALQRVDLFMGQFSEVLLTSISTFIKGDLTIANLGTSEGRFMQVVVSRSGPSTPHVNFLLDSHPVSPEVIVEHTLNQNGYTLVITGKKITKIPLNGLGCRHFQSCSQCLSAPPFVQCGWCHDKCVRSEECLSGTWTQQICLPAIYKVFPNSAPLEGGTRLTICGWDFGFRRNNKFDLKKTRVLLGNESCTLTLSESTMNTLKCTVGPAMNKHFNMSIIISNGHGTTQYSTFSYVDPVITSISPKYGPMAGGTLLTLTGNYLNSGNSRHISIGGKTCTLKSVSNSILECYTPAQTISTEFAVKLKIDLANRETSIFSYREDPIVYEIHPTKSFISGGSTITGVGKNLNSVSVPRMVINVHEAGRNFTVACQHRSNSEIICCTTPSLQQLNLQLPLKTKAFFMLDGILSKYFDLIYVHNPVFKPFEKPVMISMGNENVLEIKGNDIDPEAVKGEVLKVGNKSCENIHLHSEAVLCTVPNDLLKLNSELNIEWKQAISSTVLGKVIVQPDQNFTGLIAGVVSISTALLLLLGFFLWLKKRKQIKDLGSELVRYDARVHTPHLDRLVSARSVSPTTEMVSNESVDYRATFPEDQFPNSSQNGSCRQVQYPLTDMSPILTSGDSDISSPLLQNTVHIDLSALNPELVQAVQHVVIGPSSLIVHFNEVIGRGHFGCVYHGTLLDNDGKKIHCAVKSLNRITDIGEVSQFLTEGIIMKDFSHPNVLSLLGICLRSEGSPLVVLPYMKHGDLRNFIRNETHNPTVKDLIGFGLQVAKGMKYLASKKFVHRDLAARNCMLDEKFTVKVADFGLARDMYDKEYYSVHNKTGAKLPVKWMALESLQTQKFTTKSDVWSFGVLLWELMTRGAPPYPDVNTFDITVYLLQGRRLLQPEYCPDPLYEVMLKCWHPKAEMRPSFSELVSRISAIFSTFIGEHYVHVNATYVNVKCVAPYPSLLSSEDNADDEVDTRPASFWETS
T2 sequence (P08581 960-1390): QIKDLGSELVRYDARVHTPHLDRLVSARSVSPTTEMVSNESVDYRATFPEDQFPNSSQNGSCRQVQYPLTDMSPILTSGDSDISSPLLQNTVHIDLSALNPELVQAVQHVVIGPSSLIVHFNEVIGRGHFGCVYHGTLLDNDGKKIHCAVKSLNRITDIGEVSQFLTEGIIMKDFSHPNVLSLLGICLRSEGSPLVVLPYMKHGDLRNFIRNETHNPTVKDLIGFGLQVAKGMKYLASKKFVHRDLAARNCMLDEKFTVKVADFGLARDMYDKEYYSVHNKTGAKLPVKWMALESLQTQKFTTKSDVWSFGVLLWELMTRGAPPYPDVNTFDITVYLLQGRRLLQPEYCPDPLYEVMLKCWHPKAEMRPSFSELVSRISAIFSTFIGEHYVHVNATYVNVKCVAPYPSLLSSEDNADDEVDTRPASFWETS

SMILES	IC50 [1]	Papp A→B at 2 h, 2 μM [2]	IC50 [3]
Cc1n[nH]c2ccc(C3C(C#N)=C(CCC(C)C)NC(C(F)(F)F)=C3C#N)cc12 (racemic) [Example 1, 2-(3-Methylbutyl)-4-(3-methyl-1H-indazol-5-yl)-6-(trifluoromethyl)-1,4-dihydropyridine-3,5-dicarbonitrile]	16 nM	21.7 ×10⁻⁶ cm/s	
Cc1n[nH]c2cc(F)c(C3C(C#N)=C(CCC(F)(F)F)NC(C(F)(F)F)=C3C#N)cc12 (racemic) [Example 7, 4-(6-Fluoro-3-methyl-1H-indazol-5-yl)-2-(trifluoromethyl)-6-(3,3,3-trifluoropropyl)-1,4-dihydro-pyridine-3,5-dicarbonitrile]	52 nM	20.4 ×10⁻⁶ cm/s	
Cc1n[nH]c2cc(F)c(C3C(C#N)=C(CCC(F)(F)F)NC(C(F)F)=C3C#N)cc12 (racemic) [Example 10, 2-(Difluoromethyl)-4-(6-fluoro-3-methyl-1H-indazol-5-yl)-6-(3,3,3-trifluoropropyl)-1,4-dihydropyridine-3,5-dicarbonitrile]	26 nM		11 nM
CCC1=C(C#N)C(c2ccc3[nH]nc(C)c3c2)C(C#N)=C(C(F)(F)F)N1 (centres unmarked) [Example 4, 2-Ethyl-4-(3-methyl-1H-indazol-5-yl)-6-(trifluoromethyl)-1,4-dihydropyridine-3,5-dicarbonitrile]			11 nM

Other lines, results leading:

IC50 [1]	Papp A→B at 2 h, 2 μM [2]	IC50 [3]	SMILES
9 nM	25.9 ×10⁻⁶ cm/s		CCC1=C(C#N)C(c2ccc3[nH]nc(C)c3c2)C(C#N)=C(C(F)F)N1 (centres unmarked) [Example 13, 2-(Difluoromethyl)-6-ethyl-4-(3-methyl-1H-indazol-5-yl)-1,4-dihydropyridine-3,5-dicarbonitrile]
17 nM			Cc1n[nH]c2ccc(C3C(C#N)=C(CCC(F)(F)F)NC(C(F)F)=C3C#N)cc12 (centres unmarked) [Example 14, 2-(Difluoromethyl)-4-(3-methyl-1H-indazol-5-yl)-6-(3,3,3-trifluoropropyl)-1,4-dihydropyridine-3,5-dicarbonitrile]
29 nM			N#CC1=C(CCC(F)(F)F)NC(C(F)(F)F)=C(C#N)C1c1ccc2[nH]ncc2c1 (centres unmarked) [Example 16, 4-(1H-Indazol-5-yl)-2-(trifluoromethyl)-6-(3,3,3-trifluoropropyl)-1,4-dihydro-pyridine-3,5-dicarbonitrile]
